Key:
Il-10 = assay: Serum cytokine quantification, Il-10; format: in vivo, pig
Excerpt: (§1) Neonatal Yorkshire/Landrace cross bred piglets (n=72; six at a time from the same litter, repeating 12 times) were obtained from Oak Hill Genetics (Ewing, Ill.) after 48-hour sow reared for colostrum consumption and iron supplementation.
(§2) The influence of the respective supplements on inflammation was investigated by determining Il-6, Il-1beta, TNF-alpha and Il-10 serum levels in the intervention groups compared to EN and PN according to Milo et al., Effects of Short-Chain Fatty Acid-Supplemented Total Parenteral Nutrition on Intestinal Pro-Inflammatory Cytokine Abundance. Digestive Diseases and Sciences 2002; 47:2049-2055. Jejunal and ileal samples were homogenized in double-distilled water, and the Bradford protein assay (Biorad, Hercules, Calif., USA) was performed on homogenate and plasma samples. Protein (30 μg) from each sample was denatured by boiling, and proteins were separated by size using 12.5% sodium dodecyl sulfate polyacrylamide gel electrophoresis. Separated proteins were transferred to polyvinylidene difluoride membranes (Biorad) using a semidry transfer apparatus (Biorad). Western blot analysis for TNF-alpha, IL-1beta, Il-10 and IL-6 was performed using porcine-specific polyclonal antibodies (Endogen, Woburn, Mass., USA). A mouse anti-pig monoclonal TNF-alpha antibody was used to detect TNF-alpha ([…]). Rabbit anti-pig polyclonal antibodies specific for IL-1beta and IL-6 were used to detect IL-1beta (17,500 kDa), Il-10 (18,600 kDa) and IL-6 (26,000 kDa). Membranes were developed using the Opti-4CN kit (Biorad) and photographed using the FOTO/Analyst Image Analysis System (Fotodyne, Inc., Hartland, Wis., USA). Densitometry of TNF-alpha, IL-1beta, IL-6, and Il-10 was performed using Collage Image Analysis Software 4.0 (Fotodyne, Inc.). Results are shown in FIG. 15 (Il-6), FIG. 16 (Illbeta), FIG. 17 (TNF-alpha) and FIG. 18 (Il-10).

[1] = test system: pro-inflammatory cytokines I1-1β, I1-6, TNF-α; assay: Jejunal cytokine concentration, pro-inflammatory; format: in vivo, pig; settings: compared to standard PN (s-PN)
Excerpt: as §1, §2

[2] = test system: anti-inflammatory cytokines I1-10; assay: Jejunal cytokine concentration, anti-inflammatory; format: in vivo, pig; parameters: key: +++ indicate P < 0.01; ++ indicates P < 0.05; + indicates positive trends; = denotes no significant P value; − denotes negative trends; settings: compared to standard PN (s-PN)
Excerpt: as §1, §2

[3] = test system: pro-inflammatory cytokines I1-1β, I1-6, TNF-α; assay: Ileal cytokine concentration, pro-inflammatory; format: in vivo, pig; parameters: key: +++ indicate P < 0.01; ++ indicates P < 0.05; + indicates positive trends; = denotes no significant P value; − denotes negative trends; settings: compared to standard PN (s-PN)
Excerpt: as §1, §2

[4] = test system: anti-inflammatory cytokines I1-8, I1-10; assay: Ileal cytokine concentration, anti-inflammatory; format: in vivo, pig; parameters: key: +++ indicate P < 0.01; ++ indicates P < 0.05; + indicates positive trends; = denotes no significant P value; − denotes negative trends; settings: compared to standard PN (s-PN)
Excerpt: as §1, §2

Il-6 = assay: Serum cytokine quantification, Il-6; format: in vivo, pig; settings: 10 mmol/L TPN (Group C)
Excerpt: as §1
as §2, with “Rabbit anti-pig polyclonal antibodies specific for IL-1beta and IL-6 were used to detect IL-1beta (17,500 kDa), Il-10 (18,600 kDa) and IL-6 (26,000 kDa). Membranes were developed using the Opti-4CN kit (Biorad) and photographed using the FOTO/Analyst Image Analysis System (Fotodyne, Inc., Hartland, Wis., USA). Densitometry of TNF-alpha, IL-1beta, IL-6, and Il-10 was performed using Collage Image Analysis Software 4.0 (Fotodyne, Inc.). Results are shown in FIG. 15 (Il-6), FIG. 16 (Illbeta), FIG. 17 (TNF-alpha) and FIG. 18 (Il-10).” left out

Il-1beta = assay: Serum cytokine quantification, Il-1beta; format: in vivo, pig; settings: 10 mmol/L TPN (Group C)
Excerpt: as §1
as §2, with “Rabbit anti-pig polyclonal antibodies specific for IL-1beta and IL-6 were used to detect IL-1beta (17,500 kDa), Il-10 (18,600 kDa) and IL-6 (26,000 kDa). Membranes were developed using the Opti-4CN kit (Biorad) and photographed using the FOTO/Analyst Image Analysis System (Fotodyne, Inc., Hartland, Wis., USA). Densitometry of TNF-alpha, IL-1beta, IL-6, and Il-10 was performed using Collage Image Analysis Software 4.0 (Fotodyne, Inc.). Results are shown in FIG. 15 (Il-6), FIG. 16 (Illbeta), FIG. 17 (TNF-alpha) and FIG. 18 (Il-10).” left out

TNF-alpha = assay: Serum cytokine quantification, TNF-alpha; format: in vivo, pig; settings: 10 mmol/L TPN (Group C)
Excerpt: as §1
as §2, with “Rabbit anti-pig polyclonal antibodies specific for IL-1beta and IL-6 were used to detect IL-1beta (17,500 kDa), Il-10 (18,600 kDa) and IL-6 (26,000 kDa). Membranes were developed using the Opti-4CN kit (Biorad) and photographed using the FOTO/Analyst Image Analysis System (Fotodyne, Inc., Hartland, Wis., USA). Densitometry of TNF-alpha, IL-1beta, IL-6, and Il-10 was performed using Collage Image Analysis Software 4.0 (Fotodyne, Inc.). Results are shown in FIG. 15 (Il-6), FIG. 16 (Illbeta), FIG. 17 (TNF-alpha) and FIG. 18 (Il-10).” left out

[5] = cited from earlier work
[6] = test system: metastatic colorectal cancer patients; settings: aqueous solution, pH 7.7, phase I clinical trial; cited from earlier work

Row | Compound | serum levels of Il-10 (FIG. 18) (Il-10; 10 mmol/L TPN (Groups A, C, D)) | Jejunal Cytokine Concentration (less pro-inflammatory cytokines I1-1β, I1-6, TNF-α) ([1]; 10 mmol/L) | Jejunal Cytokine Concentration (more anti-inflammatory cytokines I1-8, I1-10) ([2]; 10 mmol/L) | Ileal Cytokine Concentration (less pro-inflammatory cytokines I1-1β, I1-6, TNF-α) ([3]; 10 mmol/L) | Ileal Cytokine Concentration (more anti-inflammatory cytokines I1-8, I1-10) ([4]; 10 mmol/L) | serum levels of Il-6 (FIG. 15) (Il-6) | serum levels of Il1-beta (FIG. 16) (Il-1beta) | serum levels of TNF-alpha (FIG. 17) (TNF-alpha) | clearance rate ([5]; human, in vivo) | steady state concentration ([5]; infusion rate of 2000 mg/kg/day, patients with hemoglobinopathy) | tolerated dose [6] | Jejunal Cytokine Concentration (less pro-inflammatory cytokines I1-1β, I1-6, TNF-α) ([1]; 30 mmol/L) | Jejunal Cytokine Concentration (more anti-inflammatory cytokines I1-8, I1-10) ([2]; 30 mmol/L) | Ileal Cytokine Concentration (less pro-inflammatory cytokines I1-1β, I1-6, TNF-α) ([3]; 30 mmol/L) | Ileal Cytokine Concentration (more anti-inflammatory cytokines I1-8, I1-10) ([4]; 30 mmol/L) | serum levels of Il-10 (FIG. 18) (Il-10; 30 mmol/L TPN (Group B))
1 | CCCCCCCCCCCCCCCC(=O)OCC(COC(=O)CCC)OC(=O)CCCCCCCCCCCCCCC (stereo not shown) [1,2-Dipalmitoyl 3-butyryl glycerol] | almost or about as low |  |  |  |  |  |  |  |  |  |  |  |  |  |  | 
2 | L-arginine, butanoate (3:4) [Arginine butyrate] | lower than in the standard PN Group P | +++ (+++ indicate P < 0.01) | ++ (++ indicates P < 0.05) | ++ (++ indicates P < 0.05) | +^4 | significantly lower than in the standard PN group | significantly lower than in the standard PN group | lower than in the other Study (or intervention) Groups | 93.6 ± 31.9 mL/min/kg | 15.7 ± 4.8 mg/L | 3 g/kg/day |  |  |  |  | 
3 | CCCC(=O)OCC(COC(=O)CCC)OC(=O)CCC [Tributyrin] | lower than in the standard PN Group P | ++ (++ indicates P < 0.05) | = | = | − |  |  |  |  |  |  | ++ (++ indicates P < 0.05) | + | + | + | lower than in the standard PN Group P
